Active and inactive are the calls of the source. No cut-off for these calls is given here.
What was measured:
Type in all cases: cell-based
[1] = target: T1, Programmed cell death protein 4 (Homo sapiens) (UniProt Q53EL6); assay: Stabilization of Pdcd4 expressed in human HEK293 cells assessed as inhibition of TPA-induced degradation by luciferase reporter assay
T1 sequence (whole entry): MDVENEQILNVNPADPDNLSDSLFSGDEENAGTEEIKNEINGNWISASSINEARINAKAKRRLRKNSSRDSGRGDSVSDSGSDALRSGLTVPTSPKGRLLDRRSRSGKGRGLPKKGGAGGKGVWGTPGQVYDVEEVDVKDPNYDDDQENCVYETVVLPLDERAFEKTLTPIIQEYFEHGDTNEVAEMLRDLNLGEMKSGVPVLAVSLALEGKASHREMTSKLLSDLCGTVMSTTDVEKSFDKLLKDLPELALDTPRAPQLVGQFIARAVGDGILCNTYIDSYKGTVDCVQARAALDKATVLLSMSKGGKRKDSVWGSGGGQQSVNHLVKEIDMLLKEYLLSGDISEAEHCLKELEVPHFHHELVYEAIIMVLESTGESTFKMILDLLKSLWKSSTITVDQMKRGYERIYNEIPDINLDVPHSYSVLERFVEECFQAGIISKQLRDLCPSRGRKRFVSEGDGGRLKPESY

[2] = target: T1, Programmed cell death protein 4 (Homo sapiens); assay: Stabilization of Pdcd4 expressed in TPA-stimulated human HEK293 cells at 2.5 uM by luciferase reporter assay
HEK293 = assay: Cytotoxicity against human HEK293 cells

Compound	inhibition [1]	max activation [2] [%]	Activity (HEK293) [µM]
COC(=O)/C(C)=C/C(C)CC(C)CC(C)(O)C(C)O (stereo not given)	inactive	–	–
COC(=O)/C(C)=C/C(C)CC(C)CC(C)(O)CC(C)O (stereo not given)	inactive	–	–
CCC(=O)/C(C)=C/C(C)CC(C)CC(C)(O)CC (stereo not given)	inactive	–	–
Nc1ncnc2c1ccn2[C@@H]1O[C@H](CO)[C@@H](O)[C@H]1O [TUBERCIDIN]	–	94.2	> 2.5

From ChEMBL document CHEMBL1909608, “Actinopolysporins A-C and tubercidin as a Pdcd4 stabilizer from the halophilic actinomycete Actinopolyspora erythraea YIM 90600” (J Nat Prod, 2011)
